Experimental findings from patent US8835428B2, “Diacylglycerol acyltransferase inhibitors” (Piramal Enterprises Limited, priority 2008, dated 2014) are described below.

One test deals with T1, hDGAT1 (Homo sapiens, UniProt O75907).
T1 construct: host or cells: Sf9 insect cells (baculovirus); microsomal preparation
T1 sequence (O75907 1-488): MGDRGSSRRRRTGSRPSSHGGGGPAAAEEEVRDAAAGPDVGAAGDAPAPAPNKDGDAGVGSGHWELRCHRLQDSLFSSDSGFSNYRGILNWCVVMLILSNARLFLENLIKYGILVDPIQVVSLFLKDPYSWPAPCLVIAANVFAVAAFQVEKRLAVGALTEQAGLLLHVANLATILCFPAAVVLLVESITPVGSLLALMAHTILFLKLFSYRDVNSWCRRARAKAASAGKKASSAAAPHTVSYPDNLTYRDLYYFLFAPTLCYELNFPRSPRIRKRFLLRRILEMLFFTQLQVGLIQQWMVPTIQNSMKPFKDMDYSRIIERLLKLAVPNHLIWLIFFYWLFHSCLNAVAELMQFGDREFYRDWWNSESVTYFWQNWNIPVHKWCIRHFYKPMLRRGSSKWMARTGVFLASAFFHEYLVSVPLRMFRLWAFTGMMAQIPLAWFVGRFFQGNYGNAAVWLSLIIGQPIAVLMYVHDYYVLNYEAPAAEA
Briefly: In-vitro DGAT1 assay (hDGAT1 microsomes from Sf9 cells, 14C oleoyl CoA, triglyceride formation). The class given is biochemical. Particulars: At 1 μM. In outline: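 Compounds tested in duplicate at 10, 5 and 1 μM for 10 min at 37 °C. Reaction: Sf9-expressed hDGAT1 microsomes (2.5–10 μg), [14C]oleoyl-CoA plus 409.5–1638 μM dioleoylglycerol, pH 7.4 Tris-HCl with fatty-acid-free BSA. Radiolabelled triglyceride extracted into heptane and scintillation-counted.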
`CC(C)[C@H](NC(=O)c1cc(-c2ccc(NC(=O)Nc3ccc(F)c(F)c3)cc2)no1)C(=O)O` [Example 130, (S)-2-(3-(4-(3-(3,4-difluorophenyl)ureido)phenyl)isoxazole-5-carboxamido)-3-methylbutanoic acid] came in with an inhibition at 1 µM of 75 to 100%.
Consider `CC(C)[C@H](NC(=O)c1csc(-c2ccc(NC(=O)Nc3cccc(C(F)(F)F)c3)cc2)n1)C(=O)O` [Example 367, (S)-3-Methyl-2-(2-(4-(3-(3-(trifluoromethyl)phenyl)ureido)phenyl)thiazole-4-carboxamido)butanoic acid], for which the inhibition at 1 µM was in the range of 0 to 50%.
`COC(=O)[C@H](C(C)C)N(C)C(=O)c1cc(-c2ccc(NC(=O)Nc3ccc(F)cc3)cc2)no1` [Example 307, (S)-methyl 2-(3-(4-(3-(4-fluorophenyl)ureido)phenyl)-N-methylisoxazole-5-carboxamido)-3-methylbutanoate] came in with an inhibition at 1 µM of 50 to 75%.
As to `Cc1ccc(F)cc1NC(=O)Nc1ccc(-c2cc(C(=O)NC(C(=O)O)C(C)C)on2)cc1` (stereo not drawn) [Example 252, 2-(3-(4-(3-(5-Fluoro-2-methylphenyl)ureido)phenyl)isoxazole-5-carboxamido)-3-methylbutanoic acid], the inhibition at 1 µM fell in the range of 75 to 100%.
`COC(=O)[C@@H]1CCCN1C(=O)c1cc(-c2ccc(NC(=O)Nc3ccccc3F)cc2)no1` [Example 261, (S)-Methyl 1-(3-(4-(3-(2-fluorophenyl)ureido)phenyl)isoxazole-5-carbonyl)pyrrolidine-2-carboxylate] came in with an inhibition at 1 µM of 50 to 75%.
On the same count and under the same terms, the same measure for `C=C(NC(=O)c1cc(-c2ccc(NC(=O)Nc3ccccc3F)cc2)no1)C(=O)O` [Example 302, 2-(3-(4-(3-(2-Fluorophenyl)ureido)phenyl)isoxazole-5-carboxamido) acrylic acid]: 50 to 75%.
The same measure, in the same setting: next, `CC(C)[C@@H](NC(=O)c1cc(-c2ccc(NC(=O)Nc3ccc(C#N)cc3)cc2)no1)C(=O)O` [Example 219, (R)-2-(3-(4-(3-(4-Cyanophenyl)ureido)phenyl)isoxazole-5-carboxamido)-3-methylbutanoic acid]: 50 to 75%.
`CC(C)[C@H](NC(=O)c1cc(-c2ccc(NC(=O)Nc3ccc(F)cc3)cc2F)no1)C(=O)O` [Example 146, (S)-2-(3-(2-fluoro-4-(3-(4-fluorophenyl)ureido)phenyl)isoxazole-5-carboxamido)-3-methylbutanoic acid]: the inhibition at 1 µM was 50 to 75%.
`CC(C)[C@H](NC(=O)c1cc(-c2ccc(NC(=O)Nc3c(F)cccc3C(F)(F)F)cc2)no1)C(=O)O` [Example 230, (S)-2-(3-(4-(3-(2-Fluoro-6-(trifluoromethyl)phenyl)ureido)phenyl)isoxazole-5-carboxamido)-3-methylbutanoic acid] returned an inhibition at 1 µM of 0 to 50%.
On the same count and under the same terms, the same measure for `COC(=O)C(NC(=O)c1cc(-c2ccc(OCc3ccccc3C(F)(F)F)cc2)no1)C(C)C` (stereo not drawn) [Example 329, Methyl 3-methyl-2-(3-(4-(2-(trifluoromethyl)benzyloxy)phenyl)isoxazole-5-carboxamido)butanoate]: 0 to 50%.
Still for that read-out and setting: the same measure for `CC(C)[C@H](NC(=O)c1cc(-c2ccc(NC(=O)Nc3ccc(F)c(F)c3F)cc2)no1)C(=O)O` [Example 191, (S)-3-Methyl-2-(3-(4-(3-(2,3,4-trifluorophenyl)ureido)phenyl)isoxazole-5-carboxamido)butanoic acid]: 75 to 100%; for `CC(C)[C@H](NC(=O)c1cc(-c2ccc(NC(=O)Nc3ccc4c(c3)OCO4)cc2)no1)C(=O)O` [Example 177, (S)-2-(3-(4-(3-benzo[d][1,3]dioxol-5-ylureido)phenyl)isoxazole-5-carboxamido)-3-methylbutanoic acid]: 75 to 100%.
The same measure, in the same setting: next, `CC(C)[C@@H](C(=O)O)N(C)C(=O)c1cc(-c2ccc(NC(=O)NC3CCCCC3)cc2)no1` [Example 312, (S)-2-(3-(4-(3-cyclohexylureido)phenyl)-N-methylisoxazole-5-carboxamido)-3-methylbutanoic acid]: 0 to 50%.

The same test, now with this note: At 5 μM.
On to `COC(=O)[C@@H](NC(=O)c1nc(-c2ccc(NC(=O)Nc3ccc(OC)cc3)cc2)no1)C(C)C` [Example 344, (S)-Methyl 2-(3-(4-(3-(4-methoxyphenyl)ureido)phenyl)-1,2,4-oxadiazole-5-carboxamido)-3-methylbutanoate], for which the inhibition at 5 µM is 0 to 50%.
The same measure, in the same setting: the same measure for `COC(=O)C(NC(=O)c1cc(-c2ccc(NC(=O)Nc3ccccn3)cc2)no1)C(C)C` (stereo not drawn) [Example 279, Methyl 3-methyl-2-(3-(4-(3-pyridin-2-ylureido)phenyl)isoxazole-5-carboxamido)butanoate]: 0 to 50%.
The same measure, in the same setting: the same measure for `COC(=O)C(NC(=O)c1cc(-c2ccc(NC(=O)Nc3cccc(C(F)(F)F)c3)cc2)no1)C(C)C` (stereo not drawn) [Example 277, Methyl 3-methyl-2-(3-(4-(3-(3-(trifluoromethyl)phenyl)ureido)phenyl)isoxazole-5-carboxamido)butanoate]: 0 to 50%; for `COC(=O)[C@@H](NC(=O)c1cc(-c2ccc(NC(=S)Nc3cccc(F)c3)cc2)no1)C(C)C` [Example 267, (S)-methyl 2-(3-(4-(3-(3-fluorophenyl)thioureido)phenyl)isoxazole-5-carboxamido)-3-methylbutanoate]: 0 to 50%; for `COC(=O)[C@@H](NC(=O)c1nc(-c2ccc(NS(=O)(=O)c3ccc(F)cc3F)cc2)no1)C(C)C` [Example 350, (S)-methyl 2-(3-(4-(2,4-difluorophenylsulfonamido)phenyl)-1,2,4-oxadiazole-5-carboxamido)-3-methylbutanoate]: 0 to 50%.

Still in this test, the particulars now being: At 10 μM.
`CC(C)C[C@H](NC(=O)c1onc(-c2ccc(Nc3nc4ccc(F)cc4s3)cc2)c1-c1ccccc1)C(=O)O` [Example 95, (S)-2-({3-[4-(6-Fluoro-benzothiazol-2-ylamino)-phenyl]-4-phenyl-isoxazole-5-carbonyl}-amino)-4-methyl-pentanoic acid]: the inhibition at 10 µM is 0 to 50%.
For `COC(=O)[C@H](CC(C)C)NC(=NO)c1cc(-c2ccc(Nc3nc4ccc(F)cc4s3)cc2)no1` [Example 50, (S)-2-({3-[4-(6-Fluoro-benzothiazol-2-ylamino)-phenyl]-N-hydroxy-isoxazole-5-carboximidoyl}-amino)-4-methyl-pentanoic acid methyl ester], the inhibition at 10 µM lay within 0 to 50%.
As to `COC(=O)[C@@H](NC(=O)c1cc(-c2ccc(NC(=O)Nc3ccc(F)cc3)c(F)c2)no1)C(C)C` [Example 96], the “% inhibition of hDGAT1” value is on record as “++ (>50% Inhibition ≦75)”.
In turn, `CC(C)C[C@H](NC(=O)c1cc(-c2ccc(NC(=O)Nc3ccc(F)cc3)cc2)no1)C(=O)O` [Example 87, (S)-2-[(3-{4-[3-(4-Fluoro-phenyl)-ureido]-phenyl}-isoxazole-5-carbonyl)-amino]-4-methyl-pentanoic acid] returned an inhibition at 10 µM of 75 to 100%.
On the same count and under the same terms, next, `COC(=O)C(NC(=O)c1cc(-c2ccc(NC(=O)NCc3ccccc3)cc2)no1)C(C)C` (stereo not drawn) [Example 107, Methyl 2-(3-(4-(3-benzylureido)phenyl)isoxazole-5-carboxamido)-3-methylbutanoate]: 0 to 50%; `COC(=O)C(CC(C)C)NC(=O)c1cc(-c2ccc(NC(=O)Nc3ccc(F)cc3F)cc2)no1` (stereo not drawn) [Example 113, Methyl 2-(3-(4-(3-(2,4-difluorophenyl)ureido)phenyl)isoxazole-5-carboxamido)-4-methylpentanoate]: 0 to 50%.

For orientation: inhibition means the share of the control response that was lost under treatment. Read a high inhibition as a response far below the control.
